Here are results for five molecules from patent US20220241333A1, “MODULATION OF T CELL CYTOTOXICITY AND RELATED THERAPY” (Cancer Research Technology Limited, priority 2019, published 2022).

The target in one assay is Bcl6 (Homo sapiens, UniProt P41182). The note with it: compared with BI-3802; cited from earlier work.
For assay [1], the system named is human CD4+ effector T cells. Put plainly: GZMB expression in human CD4+ effector T cells (PBMCs) treated with Bcl6 targeting drugs (flow cytometry). The class given is cell-based. The settings on record: 100 nM, 72 h, low dose αCD3 0.5 ug/ml. As for the experimental part: (§1) Healthy donor human PBMCs were labelled with CellTrace Violet (ThermoFisher) according to manufacturer's protocol and cultured in RPMI media supplemented with 10% fetal bovine serum, 100 U/mL penicillin, 100 ug/ml streptomycin and 2 mM L-glutamine for 72 h. Cells were either left unstimulated or stimulated with αCD3 (clone OKT3) at a final concentration of 0.5 ug/ml. Cells were additionally treated with Bcl6 targeting drugs, or with a control compound (BI-5273), at a final concentration of 100 nM. Cells were stained for flow cytometry using a fixable viability dye (eBiosciences) and with directly conjugated antibodies against human CD3, CD4, CD8, FoxP3, CD25, GzmB, and Bcl6 using the FoxP3 Transcription factor staining Buffer set (ThermoFisher) according to the manufacturer's instructions.
(In general: In flow cytometry, cells or beads pass a laser one at a time.)

In a further assay the test system is human CD8+ T cells. Put plainly: GZMB and BCL6 expression in human CD8+ T cells (PBMCs) treated with Bcl6 targeting drugs (flow cytometry). The format is cell-based. The settings on record: 100 nM, 72 h, low dose αCD3 0.5 ug/ml; compared to control compound BI-5273. The protocol: as §1
Another assay relates to human naive CD4+ T cells. Put plainly: GzmB expression in aCD3/aCD28-stimulated human naive CD4+ T cells. The class given is cell-based. The note with it: blockade of IL-2R signalling with anti-human CD25. As for the experimental part:
FACS-purified human CD4^+ T cells were cultured in RPMI complete medium with irradiated autologous feeders cells in 1:1 ratio for 96 h, stimulated with aCD3 (OKT3) and aCD28 (9.3; BioXcell). To some wells anti-CD25 antibody (Basiliximab; Novartis) was added 48 hours post aCD3/CD28 stimulation.

The next assay concerns CD4+ effector T cells. Kind of assay: GZMB expression in mouse CD4+ effector T cells treated with Bcl6 degrader (flow cytometry). The class given is cell-based. The settings on record: 10 nM, 72 h, low dose αCD3+αCD28 0.1 ug/ml. As for the experimental part:
Spleens and lymph nodes were taken from C57BL/6J mice, and processed through a 70 μm mesh using PBS, followed by red blood cell lysis using Red Blood cell lysis buffer (Sigma) according to the manufacturer's protocol. Lymphocytes were labelled with CellTrace Violet (ThermoFisher) according to manufacturer's protocol and cultured in RPMI media supplemented with 10% fetal bovine serum, 100 U/mL penicillin, 100 ug/ml streptomycin and 2 mM L-glutamine for 72 h. Cells were either left unstimulated or stimulated with αCD3 (clone 2C11, BioXcell) and αCD28 (clone 37.51, BioXcell) at 0.1 ug/ml. Cells were additionally treated with a Bcl6 degrader (BI-3802) or with a control compound (BI-5273), at a final concentration of 10 nM. […] Cells were stained for flow cytometry using a fixable viability dye (eBiosciences) and with directly conjugated antibodies against CD3, CD4, CD8, FoxP3, CD25, GzmB, PD-1 and Bcl6 using the FoxP3 Transcription factor staining Buffer set (ThermoFisher) according to the manufacturer's instructions.

In assay [2] the test system is CD4+ Trp1 and OT-II T cells. Put plainly: GzmB upregulation in CD4+ Trp1 and OT-II TCR Tg T cells stimulated in vitro with antigen and cytokines. The class given is cell-based, mouse. The settings on record: low antigen concentration (0.01 μM OVA peptide), comparison of CGAMMA chain cytokines. The protocol: Purified CD4+ T cells (CD4 T cells beads, Miltenyi or CD4 Dyna Beads, Invitrogen) were cultured in RPMI complete medium (as above) together with DC and irradiated feeder cells (40 Gy) in 2:1:1 ratio for 72 or 96 h. Polyclonal CD4+ T cells were stimulated with anti-CD3 (2C11) and anti-CD28 (37.51) (BioXcell); OT-II cells with OVA peptide (Pepscan) and Trp-1 cells with Trp-1 peptide (Pepscan) at concentration indicated in figure legend. Mouse CD4 T cells were cultured with aCD25 (PC61) and aIL-2 (JES6-1A12, BioXcell).
We therefore evaluated the potential contribution of CGAMMA receptor cytokines to the upregulation of GzmB in tumour-reactive CD4^+ T cells.

The mark [3] stands for this setting: compared to control compound BI-5273.
Where [4] appears, read: relative to control compound BI-5273.

Consider `C[C@@H]1C[C@H](C)CN(c2ncc(Cl)c(Nc3ccc4c(c3)cc(OC(C)(C)C(=O)O)c(=O)n4C)n2)C1` [BI-5273], for which, at Bcl6, the Bcl6 inhibitor activity entry was “significantly reduced Bcl6 inhibitor activity”.
For the molecule `C[C@@H]1CN(c2ncc(Cl)c(Nc3ccc4c(c3)n(CCC(C)(C)O)c(=O)n4C)n2)C[C@H](C)C1(F)F` [CCT369260, 5-((5-chloro-2-((3R,5S)-4,4-difluoro-3,5-dimethylpiperidin-1-yl)pyrimidin-4-yl)amino)-3-(3-hydroxy-3-methylbutyl)-1-methyl-1,3-dihydro-2H-benzo[d]imidazol-2-one], the “Mean fluorescence intensity (MFI) of GZMB in human CD4+ effector T cells” value in assay [1] (setting [3]) is reported as “increased GZMB expression”. In assay [1] (setting [4]), the “Percentage of human CD4+ effector T cells that express GZMB” value is reported as “significantly greater percentage”. For the same molecule, in the assay on human CD8+ T cells, the “Percentage of human CD8+ T cells that express BCL6” value is on record as “significantly lower percentage” and the “Percentage of human CD8+ T cells that express GZMB” value was “A decrease, although not statistically significant”.
With Basiliximab, the GzmB expression entry in the assay with human naive CD4+ T cells is given as “significantly reduced GzmB expression to levels below those of the untreated control sample”.
For `CNC(=O)COc1cc2cc(Nc3nc(N4C[C@H](C)C[C@H](C)C4)ncc3Cl)ccc2n(C)c1=O` [BI-3802], in the assay with CD4+ effector T cells (setting [3]), the “Mean fluorescence intensity of GZMB in CD4+ effector T cells” value was “increased GZMB expression”. Besides, in the assay on CD4+ effector T cells (setting [4]), the “Percentage of CD4+ effector T cells that express GZMB” value was “significantly greater percentage”.

B1: IL-7: cytokine (Peprotech) added to T cell cultures (protein, UniProt P13232 26-177, looked up)
Interleukin-7: DCDIEGKDGKQYESVLMVSIDQLLDSMKEIGSNCLNNEFNFFKRHICDANKEGMFLFRAARKLRQFLKMNSTGDFDLHLLKVSEGTTILLNCTGQVKGRKPAALGEAQPTKSLEENKSLKEQKKLNDLCFLKRLLQEIKTCWNKILMGTKEH
In the case of B1, the “Induction of GzmB” value in assay [2] is given as “at a much lower level”.
